Here are results for 13 compounds from patent US7015309B1 (The Wistar Institute of Anatomy and Biology, priority 1999, dated 2006).

Data set [1] relates to Agrobacterium tumefaciens. The note with it: 24 h. On the procedure: (§1) Growth inhibition assays were performed using the peptides of Example 1 and the Gram positive microorganisms Micrococcus luteus and Bacillus megaterium, and the Gram negative microorganisms, Escherichia coli D22, Agrobacterium tumefaciens, and Salmonella typhimurium. Anti-bacterial assays were performed in sterilized 96-well plates (Nunc F96 microtiter plates) with a final volume of 100 μl as described in Bulet (1996), cited above. Briefly, 90 μl of a suspension of a midlogarithmic phase bacterial culture at an initial 600 nm UV absorbence of 0.001 in Luria-Bertani rich nutrient medium was added to 10 μl of serially diluted peptides in sterilized water. The final peptide concentrations ranged between 0.15 and 80 μM. The plates were incubated at 30° C. for 24 hours with gentle shaking, and the growth inhibition was measured by recording the increase of the UV absorbence at 600 nm on an SLT Labinstruments 400 ATC microplate reader. The experiments were conducted over a 7-month period.

The next data set has as its system Salmonella typhimurium. On the procedure: as §1
Another data set relates to Bacillus megaterium. As for the experimental part: as §1
Another data set concerns Micrococcus luteus. As for the experimental part: as §1
The next data set concerns sheep erythrocytes. Put plainly: Hemolytic activity, release of hemoglobin. To be noted: for Absorbence at 405 nm: 40 μM peptide, one hour, 39° C. On the procedure: To determine whether native and modified pyrrhocoricin peptides were toxic to mammalian cells, several peptides from Example 1 above, a positive control, and a negative control were examined for hemolytic activity. Hemolytic activity was assayed with sheep erythrocytes suspended in Alsever's solution (BioWhittaker, Walkersville, Md.), and diluted with Dulbecco's phosphate-buffered saline, pH 7.2. Thirty μL of a 1% suspension of the red blood cells was incubated with agitation at 39° C. with 30 μL of 40 to 256 μM of each of the following peptides dissolved in phosphate buffered saline for one hour and centrifuged at 1000 g for five minutes. Fifty μL of the supernatant was collected and the release of hemoglobin was detected by measuring the ultraviolet absorbences of triplicate samples of the 40 μM or 256 μM test peptides and the control peptides at 405 nm.

The conditions of data set [2]: human sera, preliminary metabolism studies.
Experimental: Owing to the fact that the use of diluted serum increases peptide recovery as well as retards the reaction kinetics to a manageable rate, the experiments were conducted using 25% aqueous sera.
For serum stability studies, 10 μl of an aqueous peptide stock solution containing about 0.8 mg/ml peptide was added to 200 μl 25% aqueous pooled mouse or human serum (Sigma, St. Louis, Mo.), according to the process described in M. F. Powell et al, Pharmacol Res, 10: 1268–1273 (1993). The peptide-serum mixture was thermostated at 37° C. After 0 minutes, 45 minutes, 2 hours and 4 hours, three samples of each peptide were taken and precipitated by the addition of 40 μl 15% aqueous trichloroacetic acid. The samples were stored at 4° C. for 20 minutes and centrifuged. The peptides and some remaining serum proteins were recovered in the supernatant after the trichloroacetic acid precipitation. The supernatants were immediately frozen on dry-ice and 220 μl of each were analyzed on RP-HPLC. A mouse serum and two different batches of the same SIGMA catalog number of human sera (human 1, approximately 1 year old, and human 2, approximately 1 month old) were also used.
The lyophilized samples were redissolved in 0.1 aqueous TFA and submitted for matrix assisted laser desorption/ionization (MALDI-MS).
The missing residues are indicated (e.g—C2 means that the C-terminal two residues are cleaved off). […] In Table 4, the relative amounts of the degradation products are estimated based on the MALDI-MS peak heights. 0=not detected; 1=very weak (below 5000), 2=weak (5–10000), 3=medium (10–15000), 4=strong (15000-uncleaved molecular ion at 25–30000), 5=very strong (above uncleaved molecular ion).
In another data set the test system is COS cells. Put plainly: Direct killing of immortalized COS cells. Type of data set: cell-based. An excerpt:
In another toxicity assay, COS cell survival was studied for pyrrhocoricin and cecropin B (Bachem Biosciences, King of Prussia, Pa.) as the positive control.

Setting [3] is: read-out: IC50 in μM against Bacillus megaterium, 30° C., 24 hours, for Peptide 22 original assay (a).

Broadly, the IC50 is the concentration that inhibits the measured activity by half.

Where two headings read alike, the source gives them in different places. Non-standard residues stand in square brackets, D forms with d. Residues, ends and D or L forms follow the SMILES beside them. *: point of attachment. 5FAM = O=C1OC2(c3ccc(O)cc3Oc3cc(O)ccc32)c2ccc(C(=O)*)cc21; Biotin = O=C1N[C@H]2[C@H](CS[C@H]2CCCCC(=O)*)N1; Ac6c = NC1(C(=O)O)CCCCC1; X2 = O=C1CCCC1N*

`CC[C@H](C)[C@H](NC(=O)[C@@H]1CCCN1C(=O)[C@H](CCCNC(=N)N)NC(=O)[C@@H]1CCCN1C(=O)[C@@H]1CCCN1C(=O)[C@@H](NC(=O)[C@@H]1CCCN1C(=O)[C@H](CCCNC(=N)N)NC(=O)[C@@H]1CCCN1C(=O)[C@H](CC(C)C)NC(=O)[C@H](Cc1ccc(O)cc1)NC(=O)[C@H](CO)NC(=O)CNC(=O)[C@H](CCCCN)NC(=O)[C@H](CC(=O)O)NC(=O)[C@H](N)C(C)C)[C@@H](C)O)C(=O)N[C@@H](Cc1ccc(O)cc1)C(=O)N[C@@H](CC(N)=O)C(=O)N[C@@H](CCCNC(=N)N)C(=O)N[C@H](CC(N)=O)C(N)=O` [Peptide 12] (H-[dV]DKGSYLPRPTPPRPIYNR[dN]-NH2; N-terminus and C-terminus assumed): the IC50 in data set [1] is 2.5 µM; in the data set on Salmonella typhimurium (murium, 24 h), 5 µM; in the data set on Bacillus megaterium (setting [3]), above 80 µM; in the data set on Micrococcus luteus (24 h) it was 10 µM.

Turning to `CC[C@H](C)[C@H](NC(=O)[C@@H]1CCCN1C(=O)[C@H](CCCNC(=N)N)NC(=O)[C@@H]1CCCN1C(=O)[C@@H]1CCCN1C(=O)[C@@H](NC(=O)[C@@H]1CCCN1C(=O)[C@H](CCCNC(=N)N)NC(=O)[C@@H]1CCCN1C(=O)[C@H](CC(C)C)NC(=O)[C@H](Cc1ccc(O)cc1)NC(=O)[C@H](CO)NC(=O)CNC(=O)[C@H](CCCCN)NC(=O)[C@H](CC(=O)O)NC(=O)[C@@H](NC(=O)[C@H](CCCCN)NC(C)=O)C(C)C)[C@@H](C)O)C(=O)N[C@@H](Cc1ccc(O)cc1)C(=O)N[C@@H](CC(N)=O)C(=O)N[C@@H](CCCNC(=N)N)C(=O)NC1CCCC1=O` (stereo partly shown) [Peptide 8] (Ac-KVDKGSYLPRPTPPRPIYNR-X2; N-terminus and C-terminus assumed), the IC50 in data set [1] turned out to be 1.25 µM; in the data set on Salmonella typhimurium (murium, 24 h), 2.5 µM; in the data set with Bacillus megaterium (Bacillus, 24 h), 20 µM; with Micrococcus luteus (24 h), 5 µM.

Turning to `CC[C@H](C)[C@H](NC(=O)[C@H](CCCNC(=N)N)NC(=O)[C@@H](NC(=O)[C@H](Cc1ccc(O)cc1)NC(=O)[C@@H](NC(=O)[C@H](C)N)C(C)C)[C@@H](C)O)C(=O)N[C@@H](CCSC)C(=O)N[C@@H](CCSC)C(=O)N[C@@H](CC(N)=O)C(=O)NCC(=O)NCC(=O)N[C@@H](CCCNC(=N)N)C(=O)N[C@@H](CC(C)C)C(=O)N[C@@H](CCCCN)C(=O)N[C@@H](CCCNC(=N)N)C(N)=O` [Peptide 31D, reference compound], in the data set with sheep erythrocytes, the “Absorbence at 405 nm” value came out at 0.160 ± 0.021.

With “Ac-KVDKGSYLPRPTPPRPIYNRD-NH2 (C-terminus assumed) [Peptide 20]”, the IC50 in data set [1] is 40 µM; with Salmonella typhimurium (read-out: IC50 in μM against Salmonella typhimurium, 30° C., 24 hours, for Peptide 22 original assay (a)), above 80 µM; with Bacillus megaterium (setting [3]) it was above 80 µM; in the data set on Micrococcus luteus (read-out: IC50 in μM against Micrococcus luteus, 30° C., 24 hours, for Peptide 22 original assay (a)), above 80 µM.

For the compound `CC[C@H](C)[C@H](NC(=O)[C@@H]1CCCN1C(=O)[C@H](CCCNC(=N)N)NC(=O)[C@@H]1CCCN1C(=O)[C@@H]1CCCN1C(=O)[C@@H](NC(=O)[C@@H]1CCCN1C(=O)[C@H](CCCNC(=N)N)NC(=O)[C@@H]1CCCN1C(=O)[C@H](CC(C)C)NC(=O)[C@H](Cc1ccc(O)cc1)NC(=O)[C@H](CO)NC(=O)CNC(=O)[C@H](CCCCN)NC(=O)[C@H](CC(=O)O)NC(=O)C1(N)CCCCC1)[C@@H](C)O)C(=O)N[C@@H](Cc1ccc(O)cc1)C(=O)N[C@@H](CC(N)=O)C(=O)N[C@@H](CCCNC(=N)N)C(=O)N[C@@H](CC(N)=O)C(N)=O` [Peptide 6] (H-[Ac6c]DKGSYLPRPTPPRPIYNRN-NH2; N-terminus and C-terminus assumed), the IC50 in data set [1] was determined as 1.25 µM; in the data set with Salmonella typhimurium (murium, 24 h), 2.5 µM; in the data set on Bacillus megaterium (Bacillus, 24 h), 10 µM; with Micrococcus luteus (24 h), 5 µM.

With `CC[C@H](C)[C@H](NC(=O)[C@@H]1CCCN1C(=O)[C@H](CCCNC(=N)N)NC(=O)[C@@H]1CCCN1C(=O)[C@@H]1CCCN1C(=O)[C@@H](NC(=O)[C@@H]1CCCN1C(=O)[C@H](CCCNC(=N)N)NC(=O)[C@@H]1CCCN1C(=O)[C@H](CC(C)C)NC(=O)[C@H](Cc1ccc(O)cc1)NC(=O)[C@H](CO)NC(=O)CNC(=O)[C@H](CCCCN)NC(=O)[C@H](CC(=O)O)NC(=O)[C@@H](NC(=O)[C@H](CCCCN)NC(=O)c1ccc2c(c1)C(=O)OC21c2ccc(O)cc2Oc2cc(O)ccc21)C(C)C)[C@@H](C)O)C(=O)N[C@@H](Cc1ccc(O)cc1)C(=O)N[C@@H](CC(N)=O)C(=O)N[C@@H](CCCNC(=N)N)C(=O)N[C@@H](CC(N)=O)C(N)=O` [Peptide 19] (5FAM-KVDKGSYLPRPTPPRPIYNRN-NH2), the IC50 in the data set with Bacillus megaterium (setting [3]) was above 80 µM.

Take `CC[C@H](C)[C@H](NC(=O)[C@@H]1CCCN1C(=O)[C@H](CCCNC(=N)N)NC(=O)[C@@H]1CCCN1C(=O)[C@@H]1CCCN1C(=O)[C@@H](NC(=O)[C@@H]1CCCN1C(=O)[C@H](CCCNC(=N)N)NC(=O)[C@@H]1CCCN1C(=O)[C@H](CC(C)C)NC(=O)[C@H](Cc1ccc(O)cc1)NC(=O)[C@H](CO)NC(=O)CNC(=O)[C@H](CCCCN)NC(=O)[C@H](CC(=O)O)NC(=O)[C@@H](NC(=O)[C@H](CCCCN)NC(=O)CCCC[C@@H]1SC[C@@H]2NC(=O)N[C@@H]21)C(C)C)[C@@H](C)O)C(=O)N[C@@H](Cc1ccc(O)cc1)C(=O)N[C@@H](CC(N)=O)C(=O)N[C@@H](CCCNC(=N)N)C(=O)N[C@@H](CC(N)=O)C(N)=O` [Peptide 18] (Biotin-KVDKGSYLPRPTPPRPIYNRN-NH2): in the data set with Bacillus megaterium (setting [3]), the IC50 was above 80 µM.

`CC[C@H](C)[C@H](NC(=O)CN)C(=O)NCC(=O)N[C@@H](C)C(=O)N[C@H](C(=O)N[C@@H](CC(C)C)C(=O)N[C@@H](CCCCN)C(=O)N[C@H](C(=O)N[C@@H](CC(C)C)C(=O)N[C@H](C(=O)N[C@H](C(=O)NCC(=O)N[C@@H](CC(C)C)C(=O)N1CCC[C@H]1C(=O)N[C@@H](C)C(=O)N[C@@H](CC(C)C)C(=O)N[C@H](C(=O)N[C@@H](CO)C(=O)N[C@@H](Cc1c[nH]c2ccccc12)C(=O)N[C@H](C(=O)N[C@@H](CCCCN)C(=O)N[C@@H](CCCNC(=N)N)C(=O)N[C@@H](CCCCN)C(=O)N[C@@H](CCCNC(=N)N)C(=O)N[C@@H](CCC(N)=O)C(=O)N[C@@H](CCC(N)=O)C(N)=O)[C@@H](C)CC)[C@@H](C)CC)[C@@H](C)O)[C@@H](C)O)C(C)C)C(C)C` [Melittin, reference compound]: in the data set with sheep erythrocytes, the “lowest concentration that lysed sheep erythrocytes” value came to 5 µM and the “Absorbence at 405 nm” value is listed as 2.99 ± 0.06. Further, in the data set with sheep erythrocytes (final concentration of 40 μM), the “lysis of erythrocytes (in words)” value is recorded as “lysed the erythrocytes”.

Consider `CC[C@H](C)[C@@H]1NC(=O)[C@@H]2CCCN2C(=O)[C@H](CCCNC(=N)N)NC(=O)[C@@H]2CCCN2C(=O)[C@@H]2CCCN2C(=O)[C@H]([C@@H](C)O)NC(=O)[C@@H]2CCCN2C(=O)[C@H](CCCNC(=N)N)NC(=O)[C@@H]2CCCN2C(=O)[C@H](CC(C)C)NC(=O)[C@H](Cc2ccc(O)cc2)NC(=O)[C@H](CO)NC(=O)CNC(=O)[C@H](CCCCN)NC(=O)[C@H](CC(=O)O)NC(=O)[C@H](C(C)C)NC(=O)[C@H](CCCCN)NC(=O)[C@H](CC(C)C)NC(=O)[C@@H]2CCCN2C(=O)[C@H](CCCNC(=N)N)NC(=O)[C@@H]2CCCN2C(=O)[C@H]([C@@H](C)O)NC(=O)[C@@H]2CCCN2C(=O)[C@@H]2CCCN2C(=O)[C@H](CCCNC(=N)N)NC(=O)[C@H](CC(N)=O)NC(=O)[C@H](CCCNC(=N)N)NC(=O)[C@H](CC(N)=O)NC(=O)[C@H](Cc2ccc(O)cc2)NC1=O` [Peptide 17] (cyclo(KVDKGSYLPRPTPPRPIYNRNRPPTPRPL)), for which the endopeptidase cleavage site result in data set [2] was “between Asn 18 and Arg19”. Also, the IC50 in data set [1] was 2.5 µM; in the data set with Salmonella typhimurium (murium, 24 h) it was 5 µM; in the data set on Bacillus megaterium (Bacillus, 24 h) it was 2.5 µM; in the data set on Micrococcus luteus (24 h) it was 0.6 µM.

For the compound Cecropin [reference compound], the “Cell Count after Treatment” value with COS cells (5 μM peptide) is 6 ± 6; in the data set with COS cells (10 μM peptide), 6.7 ± 0.3; with COS cells (50 μM peptide), 7.3 ± 3.7. Besides, the “effect on COS cell count (in words)” value in the data set on COS cells (at as low as 5 μM concentration) was “reduced the cell count”.

Regarding “Ac-KVDKVDKGSYLPRPTPPRPIYNRN-NH2 (C-terminus assumed) [Peptide 3]”, the IC50 in data set [1] was 10 µM; in the data set with Salmonella typhimurium (murium, 24 h), 5 µM; in the data set with Bacillus megaterium (setting [3]) it was above 80 µM; with Micrococcus luteus (24 h), 80 µM.

“Ac-KVDKGSYLPRPTPPRPIYNRN-NH2 (C-terminus assumed) [Peptide 5]”: the IC50 in data set [1] is 5 µM; in the data set on Salmonella typhimurium (murium, 24 h), 40 µM; with Bacillus megaterium (setting [3]), above 80 µM; in the data set with Micrococcus luteus (24 h), 40 µM.

Turning to “Ac-RVDKGSYLPRPTPPRPIYNRN-NH2 (C-terminus assumed) [Peptide 4]”, the IC50 in data set [1] was 2.5 µM; with Salmonella typhimurium (murium, 24 h), 2.5 µM; in the data set with Bacillus megaterium (setting [3]) it was above 80 µM; in the data set on Micrococcus luteus (24 h) it was 5 µM.
